Experimental data from patent US20210130352A1, “OGA INHIBITOR COMPOUNDS” (Janssen Pharmaceutica NV, priority 2018, published 2021).

| melting point [°C] | SMILES |
| --- | --- |
| 251.73 | Cc1ccc2c(ccn2C)c1Nc1nccc2c1ccn2CC(=O)N(C)C [Co. No. 2] |
| 221.78 | COc1nccc(C)c1Nc1nccc2c1ccn2CC(=O)N(C)C [Co. No. 4] |
| 215.7 | CN(C)C(=O)Cn1ccc2c(Nc3c(Cl)cccc3Cl)nccc21 [Co. No. 5] |
| 228.29 | Cc1cc(C(F)(F)F)cc(C(C)C)c1Nc1nccc2c1ccn2CC(=O)N(C)C [Co. No. 6] |
| 211.88 | Cc1cncc(Cl)c1Nc1nccc2c1ccn2CC(=O)N1CCC1 [Co. No. 12] |
| 214.46 | Cc1cc(C(F)(F)F)cc(C)c1Nc1nccc2c1ccn2CC(=O)N(C)C [Co. No. 18] |
| 187.16 | Cc1cccc(C(F)(F)F)c1Nc1nccc2c1ccn2CC(=O)N(C)C [Co. No. 21] |
| 211.1 | Cc1cccc(Cl)c1Nc1nccc2c1ccn2CC(=O)N(C)C [Co. No. 22] |
| 202.75 | CN(C)C(=O)Cn1ccc2c(Nc3c(F)cccc3Cl)nccc21 [Co. No. 23] |
| 200.76 | CN(C)C(=O)Cn1ccc2c(Nc3c(Cl)cccc3OC(F)(F)F)nccc21 [Co. No. 24] |
| 69.34 | CC(C)c1cc(OC(F)(F)F)cc(Cl)c1Nc1nccc2c1ccn2CC(=O)N(C)C [Co. No. 27] |
